Source: patent US20090247646A1, “USE OF RESVERATROL AND DERIVATIVES THEREOF FOR PROMOTING THE WELLNESS STATE IN MAMMALS” (priority 2006, published 2009)

Tested on: gene expression in heart tissue
Test: Genome-wide gene expression in heart tissue of old mice fed a resveratrol-supplemented diet (Affymetrix Mouse Genome 430 2.0 array)
Type: in vivo
[1] = ADP-ribosyltransferase 1, Genebank ID NM_009710
[2] = Bcl2-associated athanogene 3, Genebank ID NM_013863
[3] = DnaJ (Hsp40) homolog, subfamily A, member 3, Genebank ID AK004575
[4] = DnaJ (Hsp40) homolog, subfamily A, member 4, Genebank ID NM_021422
[5] = DnaJ (Hsp40) homolog, subfamily B, member 5, Genebank ID AI664344
[6] = DnaJ (Hsp40) homolog, subfamily B, member 10, Genebank ID NM_020266
[7] = F-box only protein 25, Genebank ID NM_025785
[8] = F-box only protein 32, Genebank ID AF441120
[9] = F-box protein 30, Genebank ID AK006369
[10] = FK506 binding protein 7, Genebank ID NM_010222
[11] = G protein-coupled receptor kinase 5, Genebank ID BC019379
[12] = Hbs1-like (S. cerevisiae), Genebank ID AK012856
[13] = Mus musculus similar to heart alpha-kinase (LOC381181), mRNA, Genebank ID AY044451
[14] = Mus musculus transcribed sequences, Genebank ID AK004331
[15] = No description found, Genebank ID BG976607
[16] = O-linked N-acetylglucosamine (GlcNAc) transferase (UDP-N-acetylglucosamine:polypeptide-N-acetylglucosaminyl transferase), Genebank ID BG065325
[17] = PTEN induced putative kinase 1, Genebank ID AF316872
[18] = Stam binding protein, Genebank ID AK019907
[19] = acid phosphatase 1, soluble, Genebank ID AW554436

## Oc1ccc(/C=C/c2cc(O)cc(O)c2)cc1 [resveratrol, 3,4′,5-Trihydroxy-trans-stilbene]
1448825_at pyruvate dehydrogenase kinase, isoenzyme 2
  Effect of resveratrol on changeing gene expression from old to young profile: >100%
1448938_at replication protein A3
  Effect of resveratrol on changeing gene expression from old to young profile: >100%
1449116_a_at deoxythymidylate kinase
  Effect of resveratrol on changeing gene expression from old to young profile: >100%
1449334_at tissue inhibitor of metalloproteinase 3
  Effect of resveratrol on changeing gene expression from old to young profile: >100%
1450008_a_at catenin beta
  Effect of resveratrol on changeing gene expression from old to young profile: >100%
1450048_a_at vacuolar protein sorting 33B (yeast) [BLAST]
  Effect of resveratrol on changeing gene expression from old to young profile: >100%
1450634_at ATPase, H+ transporting, V1 subunit A, isoform 1
  Effect of resveratrol on changeing gene expression from old to young profile: >100%
1450720_at acid phosphatase 1, soluble
  Effect of resveratrol on changeing gene expression from old to young profile: >100%
1450899_at neural precursor cell expressed, developmentally down-regulated gene 1
  Effect of resveratrol on changeing gene expression from old to young profile: >100%
1451012_a_at cold shock domain protein A
  Effect of resveratrol on changeing gene expression from old to young profile: >100%
1451148_at PTEN induced putative kinase 1
  Effect of resveratrol on changeing gene expression from old to young profile: >100%
1451249_at DNA segment, Chr 8, ERATO Doi 812, expressed
  Effect of resveratrol on changeing gene expression from old to young profile: >100%
1452066_a_at Nedd4 family interacting protein 2
  Effect of resveratrol on changeing gene expression from old to young profile: >100%
1452767_at ribosome binding protein 1
  Effect of resveratrol on changeing gene expression from old to young profile: >100%
1452843_at interleukin 6 signal transducer
  Effect of resveratrol on changeing gene expression from old to young profile: >100%
1453124_at transportin 3
  Effect of resveratrol on changeing gene expression from old to young profile: >100%
1453129_a_at regulator of G-protein signaling 12
  Effect of resveratrol on changeing gene expression from old to young profile: >100%
1454811_a_at tumor differentially expressed 2
  Effect of resveratrol on changeing gene expression from old to young profile: >100%
1454837_at ceroid-lipofuscinosis, neuronal 6
  Effect of resveratrol on changeing gene expression from old to young profile: >100%
1454848_at protein phosphatase 1, regulatory (inhibitor) subunit 12C [BLAST]
  Effect of resveratrol on changeing gene expression from old to young profile: >100%
1454974_at syntaxin 8
  Effect of resveratrol on changeing gene expression from old to young profile: >100%
1455182_at kinesin family member 1B
  Effect of resveratrol on changeing gene expression from old to young profile: >100%
1455506_at Mus musculus transcribed sequences
  Effect of resveratrol on changeing gene expression from old to young profile: >100%
1455702_at WD repeat domain 22
  Effect of resveratrol on changeing gene expression from old to young profile: >100%
1460028_at Mus musculus transcribed sequences
  Effect of resveratrol on changeing gene expression from old to young profile: >100%
1460174_at dexamethasone-induced transcript
  Effect of resveratrol on changeing gene expression from old to young profile: >100%
1460199_a_at platelet-activating factor acetylhydrolase, isoform 1b, beta1 subunit
  Effect of resveratrol on changeing gene expression from old to young profile: >100%
[1]
  % of res effect: 108.0103%
  Median RES: 87939
[2]
  % of res effect: 131.9726%
  Median RES: 67398
[3]
  % of res effect: 67.85%
  Median RES: 30553
[4]
  % of res effect: 61.28%
  Median RES: 20850
[5]
  % of res effect: 157.0689%
  Median RES: 17969
[6]
  % of res effect: 124.1691%
  Median RES: 29661
Effect 60-70%
  number of genes changed by resveratrol: 39
Effect 70-80%
  number of genes changed by resveratrol: 48
Effect 80-90%
  number of genes changed by resveratrol: 52
Effect 90-100%
  number of genes changed by resveratrol: 62
Effect <60%
  number of genes changed by resveratrol: 44
Effect >100% (expression in resveratrol-fed old mice as percentage of untreated young mice)
  number of genes changed by resveratrol: 340
[7]
  % of res effect: 80.27%
  Median RES: 11530
[8]
  % of res effect: 104.0857%
  Median RES: 35761
[9]
  % of res effect: 58.67%
  Median RES: 6641
[10]
  % of res effect: 196.8163%
  Median RES: 33928
[11]
  % of res effect: 80.42%
  Median RES: 37493
[12]
  % of res effect: 74.36%
  Median RES: 9115
[13]
  % of res effect: 190.8585%
  Median RES: 21847
[14]
  % of res effect: 105.9%
  Median RES: 38260
[15]
  % of res effect: 69.74%
  Median RES: 9370
[16]
  % of res effect: 125.3946%
  Median RES: 2989
[17]
  % of res effect: 147.4853%
  Median RES: 116921
[18]
  % of res effect: 230.3846%
  Median RES: 13590
Sum
  number of genes changed by resveratrol: 585
[19]
  % of res effect: 349.7466%
  Median RES: 34652
Among genes changed by resveratrol treatment, heart
  number of genes that resembled or exceeded the expression level of the young group: 342
